The text below walks through data of the supplement of paper PMC10307832.

Common to all, as to assay: relative viability (nuclei count vs DMSO), 5 days (fraction); higher = more cells survive
Compound in the assay “IPA-3 + Navitoclax”: C1=CC=C2C(=C1)C=CC(=C2SSC3=C(C=CC4=CC=CC=C43)O)O [IPA-3] + CC1(C)CCC(c2ccc(Cl)cc2)=C(CN2CCN(c3ccc(C(=O)NS(=O)(=O)c4ccc(N[C@H](CCN5CCOCC5)CSc5ccccc5)c(S(=O)(=O)C(F)(F)F)c4)cc3)CC2)C1 [Navitoclax] (partner 0.5 µM)
The procedure, abridged: (§1)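 Nuclei were stained with Hoechst during a one-step fixation (final 0.05% Triton X-100, 1% formaldehyde, 1 ug/ml Hoechst) carried out 5 days after dosing, then counted on 4× images. The cells, lung cancer lines in 1536-well plates, had been dosed by pin tool the day after seeding with one drug alone or a fixed anchor-drug dose plus five library-drug doses (not always all listed) in √10 steps. Relative viability is the nuclei count in treated wells divided by that in vehicle wells, and each value is the median of duplicate plates.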

Compound in the assay “Doramapimod + Alpelisib”: Cc1ccc(-n2nc(C(C)(C)C)cc2NC(=O)Nc2ccc(OCCN3CCOCC3)c3ccccc23)cc1 [Doramapimod] + Cc1nc(NC(=O)N2CCC[C@H]2C(N)=O)sc1-c1ccnc(C(C)(C)C(F)(F)F)c1 [Alpelisib] (partner 2 µM)
Summed up: as §1

Compound in the assay “Doramapimod + Lapatinib”: Cc1ccc(-n2nc(C(C)(C)C)cc2NC(=O)Nc2ccc(OCCN3CCOCC3)c3ccccc23)cc1 [Doramapimod] + CS(=O)(=O)CCNCc1ccc(-c2ccc3ncnc(Nc4ccc(OCc5cccc(F)c5)c(Cl)c4)c3c2)o1 [Lapatinib] (partner 2 µM)
The procedure, abridged:
as §1

Compound in the assay “IPA-3 + Crizotinib”: C1=CC=C2C(=C1)C=CC(=C2SSC3=C(C=CC4=CC=CC=C43)O)O [IPA-3] + C[C@@H](Oc1cc(-c2cnn(C3CCNCC3)c2)cnc1N)c1c(Cl)ccc(F)c1Cl [Crizotinib] (partner 1 µM)
The procedure, abridged: as §1

With UMC-11, the relative viability was 0.319 with IPA-3 + Navitoclax (first compound 0.2 µM); 0.306 with IPA-3 + Navitoclax (first compound 0.6325 µM); 0.321 in the assay with IPA-3 + Navitoclax (first compound 2 µM); 0.367 in the assay with IPA-3 + Navitoclax (first compound 6.325 µM); 0.462 with IPA-3 + Navitoclax (first compound 20 µM); 1 in the assay with Doramapimod + Alpelisib (first compound 0.02 µM). The relative viability was determined as 1.03 with Doramapimod + Alpelisib (first compound 0.06325 µM); 0.891 with Doramapimod + Alpelisib (first compound 0.2 µM); 0.989 with Doramapimod + Alpelisib (first compound 0.6325 µM); 0.876 in the assay with Doramapimod + Alpelisib (first compound 2 µM); 1.09 in the assay with Doramapimod + Lapatinib (first compound 0.02 µM); 0.957 with Doramapimod + Lapatinib (first compound 0.06325 µM). The relative viability in the assay with Doramapimod + Lapatinib (first compound 0.2 µM) came out at 0.901; with Doramapimod + Lapatinib (first compound 0.6325 µM), 0.743; with Doramapimod + Lapatinib (first compound 2 µM), 0.654; with IPA-3 + Crizotinib (first compound 0.2 µM) it was 0.605; in the assay with IPA-3 + Crizotinib (first compound 0.6325 µM), 0.524; with IPA-3 + Crizotinib (first compound 2 µM) it was 0.798. For the same cell line, the relative viability with IPA-3 + Crizotinib (first compound 6.325 µM) came to 0.579; with IPA-3 + Crizotinib (first compound 20 µM), 0.673.
